Source: paper PMC10115881, “Disrupting the α-synuclein-ESCRT interaction with a peptide inhibitor mitigates neurodegeneration in preclinical models of Parkinson’s disease” (Nature Communications, 2023)
No end group written: not given here. *: point of attachment. FITC = O=C1OC2(c3ccc(O)cc3Oc3cc(O)ccc32)c2ccc(NC(=S)*)cc21

Tests used:
[1] = tested on: LC3-HiBiT reporter in HEK293 cells; assay: Autophagy flux assay (LC3-HiBiT reporter), HEK293 cells; format: cell-based, human
Source text: Autophagic flux was quantitatively measured with the Autophagy LC3-HiBiT Reporter Assay System which was purchased from Promega (GA1040) and used according to the manufacturer’s instructions. When autophagy is induced, the cytosolic LC3-I fusion protein is recruited to phagophores where it becomes conjugated to phosphatidylethanolamine to form LC3-II. Upon phagophore membrane elongation and closure to form the mature autophagosome, a significant fraction of tethered LC3 protein becomes captured within the lumen together with various cargo. Subsequently, autophagosomes fuse with lysosomes to form autolysosomes, leading to the ultimate degradation of both cargo and the captured LC3 reporter protein. Thus, changes in the total level of the LC3 reporter protein can be used to monitor changes in autophagic flux. HEK293 cells (ATCC, CRL-1573) stably expressing the LC3-HiBiT reporter were trypsinized from subconfluent culture and seeded in a 10 cm plate at a density of 3.0 × 10^6 per plate. Cells were incubated overnight at 37 °C in 5% CO2. Cells were transfected with FLAG-peptide plasmids in combination with pcDNA or A53T a-syn plasmids. After 24 h, cells were trypsinized and seeded in triplicate in a white flat-bottomed 96-well plate at a density of 20,000 cells per well. Cell medium was replaced the next day with fresh medium containing DMSO, Rapamycin, or Bafilomycin A1 and incubated for 24 h at 37 °C with 5% CO2. 80 µL of Working prewarmed Nano-Glo® HiBiT lytic buffer containing HiBiT substrate and LgBit protein (N3030) were added to each well containing 20 µL of cell medium and left to incubate on a rocker for 10 min. Samples were read using a luminometer with a 480 nm filter with measured RLU being directly proportional to HiBiT-conjugated LC3.

[2] = tested on: A53T a-syn expressing HEK293 cells; assay: Cell Titer-Glo cell viability, A53T a-syn expressing cells; format: cell-based, human; conditions: for cell viability effect of peptides: A53T a-syn, Supp Figure 1A; for Cell viability: A53T, MG132 10 μM, 72 h; for Effect of MIM motif peptides on cell viability in A53T a-syn expressing cells: Supp Figure 1H
Experimental: (§1) Oligonucleotides encoding the specific peptides were synthesized and individually cloned into the pLJM1 nGFP lentiviral vector. HEK293T cells were infected with individual constructs, and cell viability was assessed using Cell Titer-Glo luminescent assay (Promega) at 72 h post infection.
(§2) Cells were trypsinized from subconfluent cultures as described earlier, suspended in culture media, and then seeded into triplicate wells of a 96-well plate (100 µl/well) at a density of 1.5 × 10^4 cells per well with standard culture conditions of 5% CO2 at 37 °C. Cells were infected with lentivirus expressing peptide at a MOI of 5 for 72 h or transfected with plasmid for 72 h. Cell Titer-Glo reagent was added to each well (30 µL), according to the manufacturer’s protocol and […].

A53T a-syn = A53T a-syn protein level in HEK293 cells by immunoblot; format: cell-based, human
Experimental: Infected or transfected cells were scraped from six-well dishes and lysed with lysis buffer (50 mM Tris-HCl pH 7.4, 1% Nonidet P-40, 150 mM NaCl, 1 mM EDTA, 1× protease inhibitor mixture (Sigma)) for 30 min at 4 °C. The insoluble pellet was removed following a 10,000 rpm spin for 5 min at 4 °C. Lysates were analyzed by SDS-PAGE/immunoblot using 4–20% Mini-PROTEAN Tris-glycine gels (Bio-Rad), transferred to polyvinylidene fluoride (PVDF) membranes, and blocked in 5% milk containing PBS-Tween-20 (0.1%) for 1 h. PVDF membranes were then incubated with specified primary antibodies followed by incubation with horseradish peroxidase-conjugated secondary antibodies (anti-mouse HRP-linked, Cell Signaling, catalog #7076, 1:5000; anti-rabbit HRP-linked, Cell Signaling, catalog #7074, 1:5000) and detected using enhanced chemiluminescence (GE Healthcare). Anti-a-syn antibody (clone 42) was obtained from BD Biosciences (catalog #610787, 1:1000). Anti-LAMP1 antibody was obtained from Abcam (catalog #ab24170, 1:500). Anti-beta-actin antibody was obtained from Cell Signaling (13E5) (catalog #4970, 1:1000). Anti-CD63 antibody was obtained from R&D Systems (catalog #MAB50482-SP, 1:1000).

[3] = tested on: PDE dopaminergic neurons of A30P a-syn C. elegans; assay: C. elegans PDE neurite length assay; format: in vivo
Experimental: C. elegans strains were grown and maintained under standard conditions at 22–23 °C [66]. BZ555 [dat-1p::gfp] was obtained from the C. elegans Genetics Center (CGC; University of Minnesota, St Paul, MN, USA), TWH1 ([dat-1p::a-syn(A30P), ges-1p::DsRed]; [dat-1p::gfp]) was obtained by crossing BZ555 with A30P a-syn transgenic animals (kindly provided by Dr. Takeshi Iwatsubo, University of Tokyo)[67].
The peptide construct (pPD97.78_osm-6p_TagRFP_wpeptide) was obtained by subcloning the following fragments into NheI and SpeI sites of pPD97.78 (A. Fire): NheI-AgeI […] fragment (2.4 kb) obtained by PCR using primer set 5′-[…]-3′ and 5′-[…]-3′ and N2 genomic DNA as a template, AgeI-EcoRI TagRFP fragment obtained by PCR using primer set 5′-gttgaccggt[…]-3′ and 5′-ggcagaattcga[…]-3′, EcoRI-SmaI peptide ([…]) fragment digested from CMV_[…]_worm, SmaI-SpeI unc-54 3′-UTR fragment digested from pPD95.75 (Fire vector). The TagRFP control construct was obtained by replacing the EcoRI-SmaI peptide fragment and SmaI-SpeI unc-54 3′-UTR fragment from pPD97.78_osm-6p_TagRFP_wpeptide, to EcoRI- SpeI unc-54 3′-UTR fragment digested from pPD95.75[68].
Each plasmid (40 ng/µl) was injected with a co-injection marker, sur-5p::mCherry into TWH1. The animals carrying the extrachromosomal arrays were transferred to new plates, and their progenies were analyzed at the adult stage under a widefield microscope (Zeiss AxioObserver). Pearson Chi-square test was used for statistical analysis.

A53T a-syn oligomers = assay: Luciferase PCA of A53T a-syn oligomers; format: cell-based, human; conditions: for Effect on A53T a-syn oligomers: luciferase PCA, n=3
Experimental: as §1
(§3) Tet-off HEK293 cells stably expressing split luciferase-a-syn constructs and tet-off parent HEK293 cell lines were maintained in DMEM supplemented with 10% FBS and 1% pen/strep/glutamine. […] Cells were trypsinized from subconfluent culture and seeded in a 96-well plate at a density of 15,000 cells per well. Cells were incubated overnight at 37 °C in 5% CO2. Cells were transfected with GFP-peptide plasmids. After 6 h of incubation, 20 µL of cell medium was transferred to a black flat-bottomed 96-well plate. Fifty microliters of Working solution (Pierce Gaussia-Firefly Luciferase Dual Assay Kit, Thermo Scientific, 16181) were added into each well containing cell medium. Immediately after adding the reagent, samples were read using a luminometer with a 480 nm filter.

[4] = tested on: WT a-syn expressing HEK293 cells; assay: Cell Titer-Glo cell viability, WT a-syn expressing cells; format: cell-based, human; conditions: WT alpha-synuclein; for Cell viability: MG132 10 μM, 72 h; for cell viability effect of peptides: Supp Figure 1A;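 on cell viability effect of peptides: measured without MG132 proteasome inhibitor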
Experimental: as §1, §2

Parent HEK293 cells = assay: Cell Titer-Glo cell viability, parent cells; format: cell-based, human; conditions: for Cell viability: MG132 10 μM, 72 h; for cell viability effect of peptides: Supp Figure 1A;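 on cell viability effect of peptides: measured without MG132 proteasome inhibitor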
Experimental: as §1, §2

WT a-syn oligomers = assay: Luciferase PCA of WT a-syn oligomers; format: cell-based, human; conditions: for Oligomers %: WT oligomers, luciferase activity; for Effect on WT a-syn oligomers: luciferase PCA
Experimental: as §1, §3

[5] = biological target: T1, purified recombinant CHMP2B (UniProt Q9UQN3 1-213); assay: fluorescence polarisation; FITC-peptide constant at 50 nM, CHMP2B serially diluted 1:1 from 30 μM; 50 mM Na phosphate pH 5.5 or 20 mM Na acetate pH 5.5, 0.5 mM TCEP, 0.005% Triton-X-100; 30 min at room temperature; conditions: both partners purified
T1 construct: CHMP2B from the vector pET-DEST42 CHMP2B; eluted as a 26 kDa monomer; Removal of tags is not described; source: E. coli Overexpress C41, inclusion bodies, purified (Ni-NTA in guanidine HCl, dialysis, SEC)
T1 sequence (Q9UQN3 whole entry): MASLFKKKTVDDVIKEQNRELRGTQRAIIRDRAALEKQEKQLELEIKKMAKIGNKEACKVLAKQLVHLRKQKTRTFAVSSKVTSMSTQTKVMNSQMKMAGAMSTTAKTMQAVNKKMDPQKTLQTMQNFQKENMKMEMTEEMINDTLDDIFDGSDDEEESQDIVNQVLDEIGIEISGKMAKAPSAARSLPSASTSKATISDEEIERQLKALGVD

CO/C1=C\C(C)=C\[C@@H](C)[C@@H](O)[C@@H](C)C/C(C)=C/C=C/[C@H](OC)[C@@H]([C@@H](C)[C@@H](O)[C@H](C)[C@@]2(O)C[C@@H](O)[C@H](C)[C@@H](C(C)C)O2)OC1=O [bafilomycin A1]
Effect on autophagic flux [1]: increases LC3 reporter levels and luminescent signal

CHMP2B 1-199: truncated version of CHMP2B (amino acids 1–199), in which the MIM is removed
Effect on cell survival/viability ([2]; A53T a-syn cells): rescues toxicity
Effect on A53T a-syn protein level (A53T a-syn): reduction in a-syn

FEELEAQLARLR [TagRFP::peptide]
Effect on PDE neurite shortening ([3]; A30P human a-syn): partially rescued
Proportion displaying Long PDE neurite length ([3]; a-Syn (A30P), Marker +, adult): 36.95%
Proportion displaying Medium PDE neurite length ([3]; a-Syn (A30P), Marker +, adult): 48.43%
Proportion displaying Short PDE neurite length ([3]; a-Syn (A30P), Marker +, adult): 14.62%

EIERQLKALG [PDpep1.2]
cell viability effect of peptides ([2]; replicate 1): 14600
cell viability effect of peptides ([2]; replicate 2): 15600
cell viability effect of peptides ([2]; replicate 3): 14800
Cell viability ([2]; replicate 1): 7500
Cell viability ([2]; replicate 2): 6200
Cell viability ([2]; replicate 3): 6500
Effect of MIM motif peptides on cell viability in A53T a-syn expressing cells ([2]; replicate 1): 6674
Effect of MIM motif peptides on cell viability in A53T a-syn expressing cells ([2]; replicate 2): 6850
Effect of MIM motif peptides on cell viability in A53T a-syn expressing cells ([2]; replicate 3): 6527
Effect on A53T a-syn oligomers (A53T a-syn oligomers): significant reduction in A53T a-syn oligomers
A53T a-syn oligomers as measured by luciferase activity (A53T a-syn oligomers; replicate 1): 251502
A53T a-syn oligomers as measured by luciferase activity (A53T a-syn oligomers; replicate 2): 281836
A53T a-syn oligomers as measured by luciferase activity (A53T a-syn oligomers; replicate 3): 251716
Cell viability ([4]; replicate 1): 4000
Cell viability ([4]; replicate 2): 4200
Cell viability ([4]; replicate 3): 4500
cell viability effect of peptides ([4]; replicate 1): 13200
cell viability effect of peptides ([4]; replicate 2): 13400
cell viability effect of peptides ([4]; replicate 3): 13100
Cell viability (Parent HEK293 cells; replicate 1): 4500
Cell viability (Parent HEK293 cells; replicate 2): 5400
Cell viability (Parent HEK293 cells; replicate 3): 4100
cell viability effect of peptides (Parent HEK293 cells; replicate 1): 12600
cell viability effect of peptides (Parent HEK293 cells; replicate 2): 12500
cell viability effect of peptides (Parent HEK293 cells; replicate 3): 13000
Oligomers % (WT a-syn oligomers; column 1): 104.991%
Oligomers % (WT a-syn oligomers; column 2): 81.7556%
Oligomers % (WT a-syn oligomers; column 3): 72.2892%
Oligomers % (WT a-syn oligomers; column 4): 74.8709%
Oligomers % (WT a-syn oligomers; column 5): 62.3924%
Effect on WT a-syn oligomers (WT a-syn oligomers): significant reduction in a-syn oligomers

CO[C@H]1C[C@@H]2CC[C@@H](C)[C@@](O)(O2)C(=O)C(=O)N2CCCC[C@H]2C(=O)O[C@H]([C@H](C)C[C@@H]2CC[C@@H](O)[C@H](OC)C2)CC(=O)[C@H](C)/C=C(\C)[C@@H](O)[C@@H](OC)C(=O)[C@H](C)C[C@H](C)/C=C/C=C/C=C/1C [rapamycin]
Effect on autophagic flux [1]: decreased LC3 reporter levels and luminescent signal

IERQLKA [PDpep1.1]
cell viability effect of peptides ([2]; replicate 1): 13600
cell viability effect of peptides ([2]; replicate 2): 13400
cell viability effect of peptides ([2]; replicate 3): 12400
Cell viability ([2]; replicate 1): 6400
Cell viability ([2]; replicate 2): 6200
Cell viability ([2]; replicate 3): 6100
Effect of MIM motif peptides on cell viability in A53T a-syn expressing cells ([2]; replicate 1): 6738
Effect of MIM motif peptides on cell viability in A53T a-syn expressing cells ([2]; replicate 2): 6300
Effect of MIM motif peptides on cell viability in A53T a-syn expressing cells ([2]; replicate 3): 6152
Effect on A53T a-syn oligomers (A53T a-syn oligomers): significant reduction in A53T a-syn oligomers
A53T a-syn oligomers as measured by luciferase activity (A53T a-syn oligomers; replicate 1): 261554
A53T a-syn oligomers as measured by luciferase activity (A53T a-syn oligomers; replicate 2): 321472
A53T a-syn oligomers as measured by luciferase activity (A53T a-syn oligomers; replicate 3): 271592
Cell viability ([4]; replicate 1): 4800
Cell viability ([4]; replicate 2): 4300
Cell viability ([4]; replicate 3): 4100
cell viability effect of peptides ([4]; replicate 1): 13800
cell viability effect of peptides ([4]; replicate 2): 13400
cell viability effect of peptides ([4]; replicate 3): 12900
Cell viability (Parent HEK293 cells; replicate 1): 3550
Cell viability (Parent HEK293 cells; replicate 2): 3700
Cell viability (Parent HEK293 cells; replicate 3): 3800
cell viability effect of peptides (Parent HEK293 cells; replicate 1): 12600
cell viability effect of peptides (Parent HEK293 cells; replicate 2): 12000
cell viability effect of peptides (Parent HEK293 cells; replicate 3): 12700
Oligomers % (WT a-syn oligomers; column 1): 106.713%
Oligomers % (WT a-syn oligomers; column 2): 81.3253%
Oligomers % (WT a-syn oligomers; column 3): 66.2651%
Oligomers % (WT a-syn oligomers; column 4): 77.4527%
Oligomers % (WT a-syn oligomers; column 5): 64.5439%
Effect on WT a-syn oligomers (WT a-syn oligomers): significant reduction in a-syn oligomers

B1: FITC-labeled a-syn peptide, amino acids 103-114 (NEEGAPQEGILE) (peptide)
peptide: {FITC}-NEEGAPQEGILE
notes: α-synuclein amino acids 103-114; also called a-syn peptide fragment; source: synthetic peptide (LifeTein)
Kd [5]: 640 nM
